Legend:
Assay type in all cases: cell-based
Pseudomonas cepacia = experiment: Challenge test, repeated inoculation with a bacterium until failure; settings: Series IV, pH 5.5
Experimental: A test was devised to assess the ability of selected hydroxyorganic acids to preserve, against microbial spoilage, compositions according to the invention and, by way of comparison, others containing conventional chemical preservative substances.
(§1) This test involved incubating under standard conditions test compositions which have been inoculated with a selected bacterium, yeast or a mixture of moulds. […] Accordingly, the higher the number of "challenges", the better is the preservative. substance in preventing or at least delaying microbial spoilage.
(§2) The micro-organisms selected for this test were: • i) Pseudomonas cepacia - a gram-negative bacterium, • ii) Candida parapsilosis - a yeast, and • iii) Aspergillus niger & Penicillium sp., - a mixture of moulds.
(§3) The method of testing was as follows: • i) Introduce aseptically 99 ml of test composition into a 250 ml flask and add 1 ml of inoculum of one of the test organisms (see above), to provide a dilution of 10⁶ cells/ml in the composition. • ii) mix and incubate at 28°C for 24 hours. • iii) remove 1 ml of incubated composition from the flask and add to it 9 ml of peptone water/Tween 80 as diluent and mix thoroughly. • iv) place 1 ml of diluted sample into a petri dish and add warm, molten agar (40°C) and mix to distribute culture uniformly and allow to set. • v) incubate plates for 3 days at 28°C and then count colonies and note log reduction of count (due to the presence of the preservative in the original culture composition).
(§4) The inoculation of the organisms originally introduced into each composition is then repeated at 24 hour intervals, following removal of the first total viable count sample, the plating out and counting procedure being repeated on each occasion. The test is terminated when the samples show a contamination level greater than 10² counts per ml on 2 consecutive days. This point is regarded as the failure point for the composition under test.
(§5) The greater the number of inoculations of contaminant organisms before this level of contamination is established in the composition, the better the preservative system.

[1] = system: one of the test organisms; experiment: Challenge test, inoculations to failure, Series V (organism not stated in Table 10); settings: 1% w/w added to oil-in-water skin cream, pH 5.5
Experimental: as §1, §3, §4, §5
Various preservative materials were added to samples of this base formulation. The resulting compositions were subjected to the mould challenge test, as set out in Table 10 below.

[2] = system: Aspergillus niger & Penicillium sp.; experiment: Mould challenge test (mould spore suspension, viable count after 1, 7, 14, 28 days); settings: pH 5.5
Experimental: as §2
The above procedure applies to the inoculation of the bacterium and the yeast, and this procedure was varied slightly with the mixed culture of moulds as follows: • i) two samples of each test composition (9.9 ml and 9 ml) were transferred to sterile flasks and 0.1 ml or 1 ml of a mould spore suspension (approximately 10⁸ spores per ml) was introduced into the respective samples and thoroughly mixed. The inoculated samples were incubated at 28°C for up to 28 days with 1 ml samples being aseptically removed for the total viable count as outlined above using Sabouraud's dextrose agar after 1, 7, and 28 days. • ii) "Low risk" compositions eliminate mould spores in 1 to 2 days, "medium risk" compositions take 7 to 14 days to eliminate the spores and the "high risk" compositions still have surviving mould spores after 14 days incubation.

[3] = Series IV, 0.1 % w/w in water-in-oil cream
[4] = Series IV, 0.25 % w/w in water-in-oil cream
[5] = Series IV, 0.5 % w/w in water-in-oil cream
[6] = Series IV, 0.75 % w/w in water-in-oil cream
[7] = Series IV, 1 % w/w in water-in-oil cream
[8] = Series V, 1% w/w added to oil-in-water skin cream

SMILES: CCCCCCC(O)C(=O)O (stereo not shown) [2-hydroxyoctanoic acid]
- number of inoculations of bacteria to failure (Pseudomonas cepacia; 0.1 % w/w in water-in-oil cream): 4
- number of inoculations of bacteria to failure (Pseudomonas cepacia; 0.25 % w/w in water-in-oil cream): 4
- number of inoculations of bacteria to failure (Pseudomonas cepacia; 0.5 % w/w in water-in-oil cream): 20
- number of inoculations of bacteria to failure (Pseudomonas cepacia; 0.75 % w/w in water-in-oil cream): >20
- number of inoculations of bacteria to failure (Pseudomonas cepacia; 1 % w/w in water-in-oil cream): >20
- No of inoculations to failure [1]: >20
- mould challenge 1% [2, 3]: ++
- mould challenge 10% [2, 3]: ++
- mould challenge 1% [2, 4]: ++
- mould challenge 10% [2, 4]: ++
- mould challenge 1% [2, 5]: +
- mould challenge 10% [2, 5]: ++
- mould challenge 1% [2, 6]: +
- mould challenge 10% [2, 6]: ++
- mould challenge 1% [2, 7]: -
- mould challenge 10% [2, 7]: -
- mould challenge 1% [2, 8]: +

SMILES: COCCCCCCCC=CCC(O)C(=O)O (stereo not shown) ['oxa' hydroxy acid, 2-Hydroxy-13-oxa-4-tetradecenoic acid]
- preservation against the mould challenge (in words) ([2]; Series II): good preservation

SMILES: CCCCCCCCCCCC(=O)OCC(O)CO (stereo not shown) [Monolaurin, reference compound]
- No of inoculations to failure [1]: 1
- mould challenge 1% [2, 8]: ++++

SMILES: CCCCCCCCCCCC(=O)O [Lauric acid, reference compound]
- No of inoculations to failure [1]: 1
- mould challenge 1% [2, 8]: ++++

From patent EP0568307A1, “Cosmetic composition containing alpha hydroxy carboxylic acids as preservatives” (priority 1992, dated 1993)
